According to ChEMBL document CHEMBL6103639, “Structure-Based Development of 3,4-Fused Tricyclic Benzofuran Derivatives as Polyketide Synthase 13 Inhibitors with Negligible hERG Inhibition” (J Med Chem, 2025):

What was measured:
Assay type in all cases: functional
[1] = system: Mycobacterium tuberculosis; experiment: Antitubercular activity against Mycobacterium tuberculosis A1667V mutant assessed as reduction in microbial growth by microplate alamar blue assay
[2] = system: Mycobacterium tuberculosis; experiment: Antitubercular activity against Mycobacterium tuberculosis N1640S mutant assessed as reduction in microbial growth by microplate alamar blue assay
[3] = system: Mycobacterium tuberculosis; experiment: Antitubercular activity against Mycobacterium tuberculosis D1644G mutant assessed as reduction in microbial growth by microplate alamar blue assay
[4] = system: Mycobacterium tuberculosis; experiment: Antitubercular activity against Mycobacterium tuberculosis N1640K mutant assessed as reduction in microbial growth by microplate alamar blue assay

Row | SMILES | MIC [1] [µg/mL] | MIC [2] [µg/mL] | MIC [3] [µg/mL] | MIC [4] [µg/mL]
1 | CN1CN(C2CCCC2)Cc2c(O)ccc3oc(-c4ccc(O)cc4)c(c23)C1=O | 32 | >64 | >64 | >64
2 | CN1CN(CC2CC2)Cc2c(O)ccc3oc(-c4ccc(O)cc4)c(c23)C1=O | >64 | >64 | >64 | >64
3 | CN1CN(CC2CCC2)Cc2c(O)ccc3oc(-c4ccc(O)cc4)c(c23)C1=O | 8 | >64 | >64 | >64
